Results as given in ChEMBL document CHEMBL1201862, “PubChem BioAssay data set” (2004).
Activity calls are given as the source filed them.

Key:
[1] = molecular target: T1, Zinc finger protein mex-5 (Caenorhabditis elegans, UniProt Q9XUB2); assay: potency of MEX-5 RNA-binding blockers – biochemical, C. elegans, fluorescence polarization, dose response (AID 1960)
T1 sequence (Q9XUB2 whole entry): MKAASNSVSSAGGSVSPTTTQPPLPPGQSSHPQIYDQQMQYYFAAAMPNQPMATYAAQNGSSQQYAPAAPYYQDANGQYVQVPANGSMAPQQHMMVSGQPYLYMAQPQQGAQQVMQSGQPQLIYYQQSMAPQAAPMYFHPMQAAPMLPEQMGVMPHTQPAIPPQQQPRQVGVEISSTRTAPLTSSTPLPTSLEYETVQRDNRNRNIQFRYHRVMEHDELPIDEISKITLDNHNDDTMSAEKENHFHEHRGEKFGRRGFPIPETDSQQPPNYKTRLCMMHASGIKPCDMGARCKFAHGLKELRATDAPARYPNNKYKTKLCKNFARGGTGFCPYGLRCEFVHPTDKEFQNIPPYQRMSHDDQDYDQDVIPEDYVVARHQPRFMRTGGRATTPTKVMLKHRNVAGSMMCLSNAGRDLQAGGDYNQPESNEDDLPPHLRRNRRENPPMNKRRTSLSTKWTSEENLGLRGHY

[2] = molecular target: T2, RNA-binding protein pos-1 (Caenorhabditis elegans, UniProt G5EF15); assay: disruptors of C. elegans POS-1 RNA interaction – biochemical, fluorescence polarization, dose response (AID 1964);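 note: purified POS-1 fused to maltose binding protein made in E. coli; potency of compounds blocking POS-1 binding to fluorescent RNA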
T2 sequence (G5EF15 whole entry): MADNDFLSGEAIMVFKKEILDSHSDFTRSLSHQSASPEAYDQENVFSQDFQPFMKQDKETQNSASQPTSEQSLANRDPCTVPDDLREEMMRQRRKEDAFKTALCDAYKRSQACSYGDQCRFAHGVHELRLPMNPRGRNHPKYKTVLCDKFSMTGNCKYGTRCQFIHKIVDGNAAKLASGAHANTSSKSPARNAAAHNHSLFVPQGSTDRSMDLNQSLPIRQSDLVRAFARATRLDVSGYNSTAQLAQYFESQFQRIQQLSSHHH

Nonstructural protein 1 = Nonstructural protein 1 (Influenza A virus, UniProt Q194T2); type: functional, Influenza A virus (A/California/07/2009(H1N1))
Chain of Nonstructural protein 1 (Q194T2 whole entry): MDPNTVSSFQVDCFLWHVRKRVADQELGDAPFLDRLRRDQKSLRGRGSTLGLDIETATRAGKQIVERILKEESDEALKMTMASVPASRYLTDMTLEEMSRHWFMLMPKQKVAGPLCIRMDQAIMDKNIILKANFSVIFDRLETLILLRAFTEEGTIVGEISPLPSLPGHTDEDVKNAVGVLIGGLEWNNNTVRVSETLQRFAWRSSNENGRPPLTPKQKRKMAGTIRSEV

[3] = molecular target: T3, Corticotropin-releasing factor receptor 2/Corticotropin-releasing factor-binding protein (Homo sapiens, UniProt P24387+Q13324); assay: Dose Response confirmation of uHTS hits for small molecule antagonists of the CRF-binding protein and CRF-R2 receptor complex.; type: functional; settings: read-out: IC50_Mean
T3 sequence (Q13324 whole entry): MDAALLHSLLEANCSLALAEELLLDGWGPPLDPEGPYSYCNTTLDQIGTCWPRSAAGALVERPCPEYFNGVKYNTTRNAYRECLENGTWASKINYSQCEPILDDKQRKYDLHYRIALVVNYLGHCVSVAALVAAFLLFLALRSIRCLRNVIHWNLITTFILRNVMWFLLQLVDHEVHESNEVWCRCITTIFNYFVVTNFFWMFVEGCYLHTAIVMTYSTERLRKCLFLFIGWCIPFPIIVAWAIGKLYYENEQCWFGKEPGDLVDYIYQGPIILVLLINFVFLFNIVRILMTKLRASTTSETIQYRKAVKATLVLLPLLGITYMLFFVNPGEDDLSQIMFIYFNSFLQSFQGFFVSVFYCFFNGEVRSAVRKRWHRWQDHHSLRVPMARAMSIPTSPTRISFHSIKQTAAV
T3 sequence (P24387 whole entry): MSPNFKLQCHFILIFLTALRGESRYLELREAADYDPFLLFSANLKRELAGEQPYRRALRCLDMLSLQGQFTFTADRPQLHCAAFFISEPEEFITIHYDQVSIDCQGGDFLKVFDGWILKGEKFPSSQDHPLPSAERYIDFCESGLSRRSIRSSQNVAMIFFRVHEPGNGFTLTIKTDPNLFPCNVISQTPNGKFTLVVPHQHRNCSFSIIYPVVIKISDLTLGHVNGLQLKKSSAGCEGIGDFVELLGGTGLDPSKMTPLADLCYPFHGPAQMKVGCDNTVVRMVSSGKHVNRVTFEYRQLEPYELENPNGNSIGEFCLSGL

[4] = molecular target: T3, Corticotropin-releasing factor receptor 2/Corticotropin-releasing factor-binding protein; assay: activators of CRF receptor 2 with binding protein – uHTS hits, confirmation (AID 602473); type: functional; settings: read-out: EC50_Mean
[5] = loss of viability in HepG2 cells – cell-based, CellTiter-Glo, cherry-picked, cytotoxicity control for Shn3 inhibitor project, dose response (AID 624134); type: functional
[6] = non-specific 3'UTR reporter inhibition in Clone20-Shn3RL – cell-based, Renilla luciferase, cherry-picked, counter-screen for Shn3 inhibitor project, dose response (AID 624133); type: functional
[7] = reduction of Shn3 3'UTR-driven luciferase in osteoblasts – cell-based, Clone20 osteoblasts, firefly luciferase, cherry-picked, dose response (AID 624132); type: functional;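 note: firefly luciferase luminescence from reporter carrying the Shn3 3'UTR in osteoblasts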
Paired box protein Pax-8 = Paired box protein Pax-8 (Homo sapiens, UniProt Q06710); assay: PAX8 transcriptional activity inhibition in RMG-I – RMG-I cells, luciferase, cherry-pick, dose response (AID 687027); type: functional, cell-based;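 note: luciferase reporter driven by Pax8 target thyroperoxidase promoter measured by SteadyGlo luminescence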
Chain of Paired box protein Pax-8 (Q06710 whole entry): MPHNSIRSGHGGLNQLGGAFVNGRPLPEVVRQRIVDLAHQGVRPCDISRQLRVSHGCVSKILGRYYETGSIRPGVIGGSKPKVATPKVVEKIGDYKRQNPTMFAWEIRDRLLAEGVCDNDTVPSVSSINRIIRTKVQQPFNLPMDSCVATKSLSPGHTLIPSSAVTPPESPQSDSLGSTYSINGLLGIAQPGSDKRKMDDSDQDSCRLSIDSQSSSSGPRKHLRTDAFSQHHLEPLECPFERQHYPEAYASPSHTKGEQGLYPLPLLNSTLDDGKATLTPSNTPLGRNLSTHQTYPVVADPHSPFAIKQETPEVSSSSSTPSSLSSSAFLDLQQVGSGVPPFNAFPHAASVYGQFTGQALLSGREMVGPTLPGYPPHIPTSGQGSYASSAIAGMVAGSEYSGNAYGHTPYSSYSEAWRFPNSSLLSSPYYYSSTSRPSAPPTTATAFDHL

[8] = molecular target: Luciferin 4-monooxygenase (Photinus pyralis, UniProt P08659); assay: inhibition of purified Photinus pyralis luciferase – biochemical, luminescence, dose response (AID 1891)
Chain of Luciferin 4-monooxygenase (P08659 whole entry): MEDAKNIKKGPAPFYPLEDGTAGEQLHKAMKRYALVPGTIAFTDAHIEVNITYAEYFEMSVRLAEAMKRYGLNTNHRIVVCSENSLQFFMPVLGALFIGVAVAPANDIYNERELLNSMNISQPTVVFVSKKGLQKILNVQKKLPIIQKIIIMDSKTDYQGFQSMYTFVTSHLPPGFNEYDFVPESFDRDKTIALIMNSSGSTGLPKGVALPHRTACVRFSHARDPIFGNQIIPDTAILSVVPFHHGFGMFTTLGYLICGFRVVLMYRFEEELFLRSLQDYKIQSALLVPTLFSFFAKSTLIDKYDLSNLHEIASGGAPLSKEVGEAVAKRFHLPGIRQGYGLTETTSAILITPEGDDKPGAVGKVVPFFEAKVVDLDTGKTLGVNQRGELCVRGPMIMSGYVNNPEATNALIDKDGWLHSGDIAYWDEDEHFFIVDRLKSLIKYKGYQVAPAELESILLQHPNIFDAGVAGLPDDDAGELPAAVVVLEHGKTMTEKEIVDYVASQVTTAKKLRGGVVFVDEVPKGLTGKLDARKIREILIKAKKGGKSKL

[9] = Luminescence Cell-Based Dose Confirmation HTS to Identify Inhibitors of Platelet Dense Granule Release. [Related pubchem assays: 1663 (Primary HTS), 1678 (Summary of Project)]; type: functional
[10] = molecular target: T4, Polyadenylate-binding protein 1 (Homo sapiens, UniProt P11940); assay: MLLE binding blockers, Cy5 peptide tracer – biochemical, fluorescence polarization, Cy5-PAM2 peptide, secondary, miRNA deadenylation inhibitor project, dose response (AID 602260); type: functional; settings: read-out: IC50_Mean
T4 sequence (P11940 whole entry, the tested form may be a part): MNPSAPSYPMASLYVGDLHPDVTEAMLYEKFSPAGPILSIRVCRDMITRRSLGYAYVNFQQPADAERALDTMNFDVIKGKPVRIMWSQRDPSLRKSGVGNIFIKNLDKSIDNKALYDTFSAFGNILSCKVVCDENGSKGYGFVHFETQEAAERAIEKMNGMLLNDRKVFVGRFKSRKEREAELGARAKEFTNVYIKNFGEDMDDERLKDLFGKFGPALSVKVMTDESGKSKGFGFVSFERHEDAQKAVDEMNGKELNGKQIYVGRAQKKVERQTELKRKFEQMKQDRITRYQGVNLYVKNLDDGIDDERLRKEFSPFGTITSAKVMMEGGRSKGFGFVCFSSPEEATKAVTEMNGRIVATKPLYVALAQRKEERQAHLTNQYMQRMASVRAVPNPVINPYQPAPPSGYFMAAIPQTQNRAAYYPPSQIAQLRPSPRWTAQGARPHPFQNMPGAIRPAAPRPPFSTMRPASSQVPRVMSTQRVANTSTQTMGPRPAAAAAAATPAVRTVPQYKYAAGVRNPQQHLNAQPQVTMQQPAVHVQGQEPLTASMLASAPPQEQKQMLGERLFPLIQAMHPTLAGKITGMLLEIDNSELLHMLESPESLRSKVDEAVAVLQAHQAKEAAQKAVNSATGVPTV

[11] = molecular target: T4, Polyadenylate-binding protein 1; assay: MLLE domain peptide-binding blockers, IC50 – biochemical, fluorescence polarization, FITC-PAM2 peptide, dose response (AID 602259); type: functional; settings: read-out: IC50_Mean
[12] = molecular target: T5, Heat shock factor protein 1 (Mus musculus, UniProt P38532); assay: decrease of HSF1-responsive luciferase luminescence – cell-based, NIH3T3, dose retest, confirmation (AID 2382); type: functional;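 note: NIH3T3 fibroblasts with HSF1-driven luciferase reporter stressed by proteasome inhibitor MG132; luminescence from HSF1-driven luciferase expression after 8 hours of MG132 stress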
T5 sequence (P38532 whole entry): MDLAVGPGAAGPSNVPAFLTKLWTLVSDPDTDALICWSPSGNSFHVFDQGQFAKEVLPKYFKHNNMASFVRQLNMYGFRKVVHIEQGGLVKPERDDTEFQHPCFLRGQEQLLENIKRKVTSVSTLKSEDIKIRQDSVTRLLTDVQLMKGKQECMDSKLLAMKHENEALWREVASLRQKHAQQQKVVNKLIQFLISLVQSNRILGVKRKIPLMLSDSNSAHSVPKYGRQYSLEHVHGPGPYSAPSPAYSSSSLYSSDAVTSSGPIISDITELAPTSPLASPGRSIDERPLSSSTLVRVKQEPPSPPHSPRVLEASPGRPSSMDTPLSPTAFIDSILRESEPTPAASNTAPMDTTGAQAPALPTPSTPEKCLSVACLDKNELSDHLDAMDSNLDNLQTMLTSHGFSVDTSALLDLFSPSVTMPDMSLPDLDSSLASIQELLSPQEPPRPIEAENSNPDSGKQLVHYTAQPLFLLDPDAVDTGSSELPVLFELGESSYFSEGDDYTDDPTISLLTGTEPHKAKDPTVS

In the case of `C=CCN1C(=O)NC(=O)/C(=C/c2c(CCN(C)C(=O)c3ccccc3)cc3c(c2OC)OCO3)C1=O`, the EC50 [1] is reported as > 300 µM (not active) and the EC50 [2] is reported as > 300 µM (not active).

In the case of `O=C1CSC(=S)N1N=Cc1ccccc1O`, the IC50 (Nonstructural protein 1) is reported as 1.75 µM (active).

For `COc1ccc(NC(=O)/C=C/c2cccc(Br)c2)cn1`, the EC50 [1] was 12.4 µM (active) and the EC50 [2] was 16 µM (active).

For `Cc1cc(/C=N/NC(=O)c2ccoc2C)cc(C)c1O`, the IC50 [3] was > 47.1 µM (inactive) and the EC50 [4] was > 53 µM (inactive).

With `Cc1cc(NC(=O)CCN2CCN(C/C=C/c3ccccc3)CC2)ccc1Br` the AC50 [5] was > 70 µM (inactive), the AC50 [6] was 15 µM (active) and the AC50 [7] was 10.2 µM (active).

For `Cc1nc(Nc2nc(CSc3nc4ccccc4[nH]3)cc(=O)[nH]2)nc2ccccc12`, the AC50 (Paired box protein Pax-8) was 9.16 µM (active).

With `O=C(NCc1ccncc1)c1cc(F)c(F)cc1Cl` the IC50 [3] was > 47.1 µM (inactive) and the EC50 [4] was > 53 µM (inactive).

With `O=C(CCc1ccccc1)Nc1c(F)cccc1F` the IC50 [3] was > 47.1 µM (inactive) and the EC50 [4] was > 53 µM (inactive).

For `Cc1cccn2c(=O)c3cc(C(=O)NC4CCCC4)c(=N)n(CCc4ccccc4)c3nc12`, the EC50 [1] was > 300 µM (not active) and the EC50 [2] was > 300 µM (not active).

With `COc1ccc(NC(=O)C2Cc3c(-c4cccc(C(C)=O)c4)ccnc3O2)cc1OC` (configuration not stated) the AC50 [5] was 7.75 µM (active), the AC50 [6] was 4.68 µM (active) and the AC50 [7] was 0.799 µM (active).

For `OC(c1cc(-c2cccc(Cl)c2)nc2ccccc12)C1CCCCN1` (configuration not stated), the AC50 [5] was 16 µM (active), the AC50 [6] was 15.4 µM (active) and the AC50 [7] was 10.8 µM (active).

In the case of `CN(C1=C(N2CCCCC2)C(=O)c2ccccc2C1=O)c1ccccc1`, the IC50 (Nonstructural protein 1) is reported as 6.94 µM (active).

In the case of `C[C@@H]1CCCCO[C@@H](CN(C)Cc2ccc(Cl)c(Cl)c2)[C@H](C)CN([C@@H](C)CO)C(=O)c2cc(NS(=O)(=O)c3ccccc3)ccc2O1`, the AC50 (Paired box protein Pax-8) is reported as 13.4 µM (active).

With `COc1cc(C2C(C#N)=C(N)Oc3[nH]nc(-c4ccccn4)c32)cc(OC)c1OC` (configuration not stated) the IC50 [3] was > 47.1 µM (inactive) and the EC50 [4] was > 53 µM (inactive).

In the case of `OCCN1CCN(CC(O)COc2ccc(Cl)cc2)CC1` (configuration not stated), the EC50 [8] is reported as > 112 µM (not active) and the EC50 [9] is reported as > 112 µM (not active).

With `O=[N+]([O-])c1ccc(Nc2ccc(N3CCOCC3)cc2)c([N+](=O)[O-])c1` the IC50 (Nonstructural protein 1) was 71.6 µM (active).

With `COCCn1c(=N)c(C(=O)NCc2ccco2)cc2c(=O)n3cc(C)ccc3nc21` the IC50 [10] was 33.2 µM (inactive), the IC50 [3] was > 47.1 µM (inactive) and the IC50 [11] was 16.7 µM (active). For the same molecule, the EC50 [4] was > 53 µM (inactive).

For `CCOC(=O)c1c(O)nc2ccccc2c1N1CCCCC1`, the EC50 [8] was > 112 µM (not active), the EC50 [9] was > 112 µM (not active) and the EC50 [12] was > 195 µM (not active).
